Molecular target: T1, F508del (Homo sapiens, UniProt P13569, DEL508-508)
T1 construct: expressed in transfected cells
Test: Protocol 2: FRET membrane potential optical assay (VIPR), identification of correction compounds
Assay type: cell-based
Conditions: Table 3; compounds of Table 1 as modulators of CFTR activity; protocol not stated
Procedure, shortened: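 Mouse NIH3T3 cells, stable F508del; cpd 16 hrs, 37° C., serum-free; pos ctrl 27° C. 16 hrs. Rinse in Krebs Ringers, dye load, then add 10 μM forskolin + 20 μM genistein with Cl^−-free (gluconate) medium; depolarization by FRET voltage dyes.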

T1 sequence (P13569 with tags, fused parts or gaps DEL508-508): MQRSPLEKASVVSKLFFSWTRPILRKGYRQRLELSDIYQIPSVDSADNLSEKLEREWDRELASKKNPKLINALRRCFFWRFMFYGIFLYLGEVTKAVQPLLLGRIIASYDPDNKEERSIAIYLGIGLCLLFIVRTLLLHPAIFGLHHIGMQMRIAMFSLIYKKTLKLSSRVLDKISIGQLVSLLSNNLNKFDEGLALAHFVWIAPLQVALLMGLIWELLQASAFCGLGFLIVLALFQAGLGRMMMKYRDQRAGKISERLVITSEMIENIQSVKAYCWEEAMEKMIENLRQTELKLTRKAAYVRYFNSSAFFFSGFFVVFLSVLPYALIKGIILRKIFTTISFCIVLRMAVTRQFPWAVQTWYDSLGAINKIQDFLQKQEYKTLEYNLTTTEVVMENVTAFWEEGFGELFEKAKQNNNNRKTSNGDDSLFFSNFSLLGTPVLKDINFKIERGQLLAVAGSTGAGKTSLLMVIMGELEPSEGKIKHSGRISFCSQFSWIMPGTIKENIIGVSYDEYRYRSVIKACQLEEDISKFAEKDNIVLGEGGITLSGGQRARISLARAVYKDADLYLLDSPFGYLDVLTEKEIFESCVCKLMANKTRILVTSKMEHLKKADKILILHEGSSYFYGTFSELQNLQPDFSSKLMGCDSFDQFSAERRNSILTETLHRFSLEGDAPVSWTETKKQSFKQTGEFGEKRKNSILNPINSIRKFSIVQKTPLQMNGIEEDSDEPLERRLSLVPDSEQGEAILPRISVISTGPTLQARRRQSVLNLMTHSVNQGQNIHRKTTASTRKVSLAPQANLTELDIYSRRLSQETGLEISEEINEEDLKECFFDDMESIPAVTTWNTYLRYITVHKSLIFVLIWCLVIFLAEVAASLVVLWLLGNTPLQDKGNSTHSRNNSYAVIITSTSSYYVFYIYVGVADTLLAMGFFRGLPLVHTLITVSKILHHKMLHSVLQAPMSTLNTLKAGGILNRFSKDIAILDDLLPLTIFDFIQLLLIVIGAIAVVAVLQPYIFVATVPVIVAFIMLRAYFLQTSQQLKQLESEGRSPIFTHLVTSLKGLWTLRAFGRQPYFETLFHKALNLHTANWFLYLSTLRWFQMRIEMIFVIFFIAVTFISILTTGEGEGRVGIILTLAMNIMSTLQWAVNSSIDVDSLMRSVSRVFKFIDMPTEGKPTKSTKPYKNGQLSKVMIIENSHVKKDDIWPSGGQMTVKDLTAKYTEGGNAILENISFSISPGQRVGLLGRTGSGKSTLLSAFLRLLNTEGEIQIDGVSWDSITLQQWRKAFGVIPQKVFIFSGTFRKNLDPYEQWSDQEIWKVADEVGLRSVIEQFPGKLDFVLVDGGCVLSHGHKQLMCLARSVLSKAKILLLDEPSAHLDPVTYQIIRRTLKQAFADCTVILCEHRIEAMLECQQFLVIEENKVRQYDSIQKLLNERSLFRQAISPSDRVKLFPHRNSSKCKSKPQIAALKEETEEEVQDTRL

EC30	SMILES
+++ (“+++” means <3 uM)	COc1cccc(-c2ccc(C(=O)NS(=O)(=O)c3cccc(N)n3)c(Oc3c(C)cc(C)cc3C)n2)c1OC [Compound 485, N-[(6-amino-2-pyridyl)sulfonyl]-6-(2,3-dimethoxyphenyl)-2-(2,4,6-trimethylphenoxy)pyridine-3-carboxamide]
++ (“++” means between 3 uM and 10 uM)	Cc1cc(C(=O)NS(=O)(=O)c2cccc(N)n2)c(N2[C@H](C)CC[C@@H]2C)nc1-c1ccc(OC(C)C)nc1 [Compound 486, N-[(6-amino-2-pyridyl)sulfonyl]-2-[(2R,5S)-2,5-dimethylpyrrolidin-1-yl]-6-(6-isopropoxy-3-pyridyl)-5-methyl-pyridine-3-carboxamide]
++ (“++” means between 3 uM and 10 uM)	CC(C)Oc1cc(F)cc(-c2ccc(C(=O)NS(=O)(=O)c3ccc[nH]c3=O)c(N3[C@H](C)CC[C@@H]3C)n2)c1 [Compound 487, 2-[(2S,5R)-2,5-dimethylpyrrolidin-1-yl]-6-(3-fluoro-5-isopropoxy-phenyl)-N-[(2-oxo-1H-pyridin-3-yl)sulfonyl]pyridine-3-carboxamide]
+++ (“+++” means <3 uM)	CC(C)Oc1ccc(-c2ccc(C(=O)NS(=O)(=O)c3cccc(N)n3)c(N3CCCC(c4ccccn4)C3)n2)cn1 (stereo not shown) [Compound 489, N-[(6-amino-2-pyridyl)sulfonyl]-6-(6-isopropoxy-3-pyridyl)-2-[3-(2-pyridyl)-1-piperidyl]pyridine-3-carboxamide]
+++ (“+++” means <3 uM)	CCCOc1cc(-c2ccc(C(=O)NS(=O)(=O)c3cccc(N)n3)c(N3CC(C)CC3(C)C)n2)ccn1 (stereo not shown) [Compound 491, N-[(6-amino-2-pyridyl)sulfonyl]-6-(2-propoxy-4-pyridyl)-2-(2,2,4-trimethylpyrrolidin-1-yl)pyridine-3-carboxamide]
+++ (“+++” means <3 uM)	Cc1cc(C)c(Oc2nc(-c3ccc(OC(C)C)cc3)ccc2C(=O)NS(=O)(=O)c2ccc[nH]c2=O)c(C)c1 [Compound 494, 6-(4-isopropoxyphenyl)-N-[(2-oxo-1H-pyridin-3-yl)sulfonyl]-2-(2,4,6-trimethylphenoxy)pyridine-3-carboxamide]
+++ (“+++” means <3 uM)	CC(C)Oc1ccc(-c2ccc(C(=O)NS(=O)(=O)c3ccc[nH]c3=O)c(N3C[C@@H](C)CC3(C)C)n2)cn1 [Compound 497, 6-(6-isopropoxy-3-pyridyl)-N-[(2-oxo-1H-pyridin-3-yl)sulfonyl]-2-[(4S)-2,2,4-trimethylpyrrolidin-1-yl]pyridine-3-carboxamide]
++ (“++” means between 3 uM and 10 uM)	COc1ncc(-c2ccc(C(=O)NS(=O)(=O)c3cccc(N)n3)c(Oc3c(C)cc(C)cc3C)n2)c(OC)n1 [Compound 499, N-[(6-amino-2-pyridyl)sulfonyl]-6-(2,4-dimethoxypyrimidin-5-yl)-2-(2,4,6-trimethylphenoxy)pyridine-3-carboxamide]
+++ (“+++” means <3 uM)	CCCN(CC1CC1)c1nc(-c2ccc(OC(C)C)nc2)ccc1C(=O)NS(=O)(=O)c1cccc(N)n1 [Compound 500, N-[(6-amino-2-pyridyl)sulfonyl]-2-[cyclopropylmethyl(propyl)amino]-6-(6-isopropoxy-3-pyridyl)pyridine-3-carboxamide]
+++ (“+++” means <3 uM)	Cc1cc(C)c(Oc2nc(C(C)(C)C)ccc2C(=O)NS(=O)(=O)c2cccc(C(F)F)n2)c(C)c1 [Compound 501, 6-tert-butyl-N-[[6-(difluoromethyl)-2-pyridyl]sulfonyl]-2-(2,4,6-trimethylphenoxy)pyridine-3-carboxamide]
+++ (“+++” means <3 uM)	CC(C)Oc1ccc(-c2ccc(C(=O)NS(=O)(=O)c3cccc(N)n3)c(N3CC(c4ccccc4)CC3C)n2)cn1 (stereo not shown) [Compound 502, N-[(6-amino-2-pyridyl)sulfonyl]-6-(6-isopropoxy-3-pyridyl)-2-(2-methyl-4-phenyl-pyrrolidin-1-yl)pyridine-3-carboxamide]
+++ (“+++” means <3 uM)	CC1CN(c2nc(-c3ccc(Cl)c(OC(C)C)c3)ccc2C(=O)NS(=O)(=O)c2cccc(N)n2)C(C)(C)C1 (stereo not shown) [Compound 504, N-[(6-amino-2-pyridyl)sulfonyl]-6-(4-chloro-3-isopropoxy-phenyl)-2-(2,2,4-trimethylpyrrolidin-1-yl)pyridine-3-carboxamide]
++ (“++” means between 3 uM and 10 uM)	Cc1cc(C)c(Oc2nc(-c3cc(O)cc(F)c3)ccc2C(=O)NS(=O)(=O)c2cccc(N)n2)c(C)c1 [Compound 505, N-[(6-amino-2-pyridyl)sulfonyl]-6-(3-fluoro-5-hydroxy-phenyl)-2-(2,4,6-trimethylphenoxy)pyridine-3-carboxamide]
+++ (“+++” means <3 uM)	CCOc1ccc(-c2ccc(C(=O)NS(=O)(=O)c3nccnc3N)c(N3CCC(C)CC3)n2)cc1 [Compound 507, N-(3-aminopyrazin-2-yl)sulfonyl-6-(4-ethoxyphenyl)-2-(4-methyl-1-piperidyl)pyridine-3-carboxamide]
++ (“++” means between 3 uM and 10 uM)	Cc1cc(C)c(CN2Cc3c(-c4ccccc4)cccc3C2C(=O)NS(=O)(=O)c2ccc[nH]c2=O)c(C)c1 (stereo not shown) [Compound 508, N-[(2-oxo-1H-pyridin-3-yl)sulfonyl]-4-phenyl-2-[(2,4,6-trimethylphenyl)methyl]isoindoline-1-carboxamide]
+++ (“+++” means <3 uM)	CC(C)Oc1ccc(-c2ccc(C(=O)NS(=O)(=O)c3cccc(N)n3)c(N3CCCC3c3ccccc3)n2)cn1 (stereo not shown) [Compound 509, N-[(6-amino-2-pyridyl)sulfonyl]-6-(6-isopropoxy-3-pyridyl)-2-(2-phenylpyrrolidin-1-yl)pyridine-3-carboxamide]
++ (“++” means between 3 uM and 10 uM)	COc1ccc(S(=O)(=O)NC(=O)c2ccc(C(C)(C)C)nc2-c2ccc(C)cc2)cn1 [Compound 512, 6-tert-butyl-N-[(6-methoxy-3-pyridyl)sulfonyl]-2-(p-tolyl)pyridine-3-carboxamide]

SMILES	EC30
CC(C)COc1cc(F)cc(-c2ccc(C(=O)NS(=O)(=O)c3cccc(N)n3)c(N3CC(c4ccccc4)CC3C)n2)c1 (stereo not shown) [Compound 488, N-[(6-amino-2-pyridyl)sulfonyl]-6-(3-fluoro-5-isobutoxy-phenyl)-2-(2-methyl-4-phenyl-pyrrolidin-1-yl)pyridine-3-carboxamide]	+++ (“+++” means <3 uM)
CC(C)COc1cc(F)cc(-c2ccc(C(=O)NS(=O)(=O)c3cccc(N)n3)c(N3CC4CC4C3C(F)(F)F)n2)c1 (stereo not shown) [Compound 490, N-[(6-amino-2-pyridyl)sulfonyl]-6-(3-fluoro-5-isobutoxy-phenyl)-2-[4-(trifluoromethyl)-3-azabicyclo[3.1.0]hexan-3-yl]pyridine-3-carboxamide]	+++ (“+++” means <3 uM)
CC(C)COc1cc(F)cc(-c2ccc(C(=O)NS(=O)(=O)c3ccc[nH]c3=O)c(N3C[C@@H](C)CC3(C)C)n2)c1 [Compound 492, 6-(3-fluoro-5-isobutoxy-phenyl)-N-[(2-oxo-1H-pyridin-3-yl)sulfonyl]-2-[(4S)-2,2,4-trimethylpyrrolidin-1-yl]pyridine-3-carboxamide]	+++ (“+++” means <3 uM)
CCC(C)(C)C1CCCN1c1nc(-c2cc(F)cc(OCC(C)C)c2)ccc1C(=O)NS(=O)(=O)c1cccc(N)n1 (stereo not shown) [Compound 493, N-[(6-amino-2-pyridyl)sulfonyl]-2-[2-(1,1-dimethylpropyl)pyrrolidin-1-yl]-6-(3-fluoro-5-isobutoxy-phenyl)pyridine-3-carboxamide]	+++ (“+++” means <3 uM)
C[C@@H]1CC[C@H](C)N1c1nc(-c2cncc(OC3CCCC3)c2)ccc1C(=O)NS(=O)(=O)c1cccc(N)n1 [Compound 495, N-[(6-amino-2-pyridyl)sulfonyl]-6-[5-(cyclopentoxy)-3-pyridyl]-2-[(2S,5R)-2,5-dimethylpyrrolidin-1-yl]pyridine-3-carboxamide]	++ (“++” means between 3 uM and 10 uM)
CC(C)COc1cc(F)cc(-c2ccc(C(=O)NS(=O)(=O)c3cccc(N)n3)c(N3C(C)CCC3(C)C)n2)c1 (stereo not shown) [Compound 496, N-[(6-amino-2-pyridyl)sulfonyl]-6-(3-fluoro-5-isobutoxy-phenyl)-2-(2,2,5-trimethylpyrrolidin-1-yl)pyridine-3-carboxamide]	+++ (“+++” means <3 uM)
CC(C)COc1cc(F)cc(-c2ccc(C(=O)NS(=O)(=O)c3ccn[nH]3)c(N3CCCC(C(C)C)C3)n2)c1 (stereo not shown) [Compound 498, 6-(3-fluoro-5-isobutoxy-phenyl)-2-(3-isopropyl-1-piperidyl)-N-(1H-pyrazol-5-ylsulfonyl)pyridine-3-carboxamide]	+++ (“+++” means <3 uM)
CC(C)COc1cc(F)cc(-c2ccc(C(=O)NS(=O)(=O)c3cccc(N)n3)c(OC3CCC(C)C3C)n2)c1 (stereo not shown) [Compound 503, N-[(6-amino-2-pyridyl)sulfonyl]-2-(2,3-dimethylcyclopentoxy)-6-(3-fluoro-5-isobutoxy-phenyl)pyridine-3-carboxamide]	+++ (“+++” means <3 uM)
CC(C)COc1cc(F)cc(-c2ccc(C(=O)NS(=O)(=O)c3ccn[nH]3)c(N3CCC4(CC3)OCc3ccccc34)n2)c1 [Compound 506, 6-(3-fluoro-5-isobutoxy-phenyl)-N-(1H-pyrazol-5-ylsulfonyl)-2-spiro[1H-isobenzofuran-3,4′-piperidine]-1′-yl-pyridine-3-carboxamide]	+++ (“+++” means <3 uM)
COc1cccc(S(=O)(=O)NC(=O)c2ccc(-c3cc(F)cc(OCC(C)C)c3)nc2N2CCC(C)(C)CC2)c1 [Compound 510, 2-(4,4-dimethyl-1-piperidyl)-6-(3-fluoro-5-isobutoxy-phenyl)-N-(3-methoxyphenyl)sulfonyl-pyridine-3-carboxamide]	+++ (“+++” means <3 uM)
CC(C)COc1cccc(-c2ccc(C(=O)NS(=O)(=O)c3ccc[nH]c3=O)c(N3[C@H](C)CC[C@@H]3C)n2)c1 [Compound 511, 2-[(2S,5R)-2,5-dimethylpyrrolidin-1-yl]-6-(3-isobutoxyphenyl)-N-[(2-oxo-1H-pyridin-3-yl)sulfonyl]pyridine-3-carboxamide]	+++ (“+++” means <3 uM)
